Tests used:
[1] = tested on: clot formation in normal anticoagulated plasma; test: Prothrombin time (PT) assay, PT converted to INR; type: biochemical, human; conditions: ISI 1.65
Description: The Prothrombin Time (PT) Assay primarily measures the time required for the clot formation in a test sample. Per the assay, the test samples first mixed with normal anticoagulated plasma in a ratio of 1:9 and incubated for 2 minutes at Room temperature. Then tissue thromboplastin with calcium ions is added to the test samples. The samples are then incubated for 2 minutes at 37° C. Tissue thromboplastin and calcium ions is added to normal anticoagulated plasma mixed with formulation, to initiate the clotting mechanism leading to formation of a fibrin clot. The coagulation analyzer is utilized to record the PT required for clot formation. The PT so obtained is then converted to International Normalized Ratio (INR) by utilizing the following formula:
INR=(PTTest Sample/PTControl Level 1)^ISI;
wherein ISI (International Sensitivity Index)—indicates the sensitivity of individual thromboplastin. The value of ISI utilized in the anticoagulant investigations reported herein is 1.65.
If the deficiency exists within coagulation pathway (for example test blood contains heparin or other anticoagulant) the time required for clot formation will be prolonged. Any INR values ≧ that of abnormal plasma level 2 (e.g., TriniCHECK™ Level 2; Trinity Biotech) are considered indicative of deficiency within the coagulation pathway, and thus indicative of highly anticoagulative properties. Any INR values higher than 5.5 are considered indicative of highly anticoagulant behavior. Therefore, the strength of an anticoagulant can be characterized by the INR value, i.e., the larger the INR value the stronger the anticoagulant properties.

[2] = tested on: Pseudomonas aeruginosa (ATCC 27853); test: Checkerboard titration / micro-dilution antimicrobial synergy evaluation (MIC, FIC); type: cell-based
Description: The combinations having an FIC index of ≦0.5 are considered synergistic while a FIC index of >0.5 but ≦1 are considered partially synergistic.
First, potential antimicrobial synergy in a composition having a combination of EDTA and NAC components was investigated with respect to the Pseudomonas aeruginosa (ATCC 27853) microorganism.
According to this method the stock solutions are prepared having a concentration equivalent or higher than twice the MIC of the components among which synergy is to be tested.
As the solutions get turbid, a higher optical density values generated. Generally speaking, increased turbidity, and thus higher optical density readings, are indicative of the presence of micro organisms in the solution. During analysis of the samples, optical density measurements above a predetermined cutoff value is indicative that there are microorganisms present in the solutions or samples, and are thus characterized by positive growth (+), while optical density readings which fall below the cutoff value can be characterized by negative growth (−). A number of the OD measurements were made (OD1, OD2, OD3), and the mean value calculated.

Row | SMILES | INR ([1]; 4 wt % DEDTA alone) | INR ([1]; at 8 wt %) | MIC [2]
1 | O=C([O-])CN(CCN(CC(=O)[O-])CC(=O)O)CC(=O)O.[Na+].[Na+] [DEDTA, disodium EDTA] | 16.7 | > 233 | 0.25 wt %
2 | CC(=O)N[C@@H](CS)C(=O)O [NAC, N-Acetyl Cysteine] | – | > 26 | 0.25 wt %
